These results are taken from patent publication US8530490B2, “Uracil compound or salt thereof having human deoxyuridine triphosphatase inhibitory activity” (Taiho Pharmaceutical Co., Ltd., priority 2008, dated 2013).

For the experiment, the target named is human dUTPase (Homo sapiens (Human), UniProt P33316). The experiment is described as follows: Human dUTPase inhibitory effect: production of [5-3H]dUMP from [5-3H]dUTP, measured by HPLC with flow scintillation. The experiment is classed as biochemical. To be noted: [5-3H]dUMP production from [5-3H]dUTP, 37° C., 15 minutes. The procedure, abridged: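 E. coli-expressed purified human dUTPase reacted with 1 μM dUTP stock containing [5-3H]dUTP in Tris pH 7.4, MgCl2, 2-mercaptoethanol and albumin, 15 min at 37° C; stopped by 1 min at 100° C. [5-3H]dUMP formed was separated by reversed-phase ion-pair HPLC and quantified by flow scintillation versus water control.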
Sequence of human dUTPase (P33316 94-252): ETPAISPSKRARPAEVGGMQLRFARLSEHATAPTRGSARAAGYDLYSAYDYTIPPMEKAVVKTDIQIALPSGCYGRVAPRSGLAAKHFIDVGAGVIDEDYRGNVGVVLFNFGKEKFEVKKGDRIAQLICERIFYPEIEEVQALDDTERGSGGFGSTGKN

For `C/C=C\c1cccc(S(=O)(=O)NC(C)(C)CCCOCn2ccc(=O)[nH]c2=O)c1` [Example 162, (Z)—N-(5-((2,4-dioxo-3,4-dihydropyrimidin-1(2H)-yl)methoxy)-2-methylpentan-2-yl)-3-(prop-1-enyl)benzenesulfonamide], the midpoint of inhibition, the IC50, lay at 3.96 µM.

As to `O=c1ccn(COCCCC2(NS(=O)(=O)c3ccccc3)CC2)c(=O)[nH]1` [Example 164, N-(1-(3-((2,4-dioxo-3,4-dihydropyrimidin-1(2H)-yl)methoxy)propyl)cyclopropyl)benzenesulfonamide], half-maximal inhibition (IC50) required 6.02 µM.

`COc1cccc(S(=O)(=O)NC2(CCCOCn3ccc(=O)[nH]c3=O)CC2)c1` [Example 165, N-(1-(3-((2,4-dioxo-3,4-dihydropyrimidin-1(2H)-yl)methoxy)propyl)cyclopropyl)-3-methoxybenzenesulfonamide]: half-maximal inhibition (IC50) required 1.86 µM.

With `O=c1ccn(COCCCCNS(=O)(=O)c2cccc(OCC3CC3)c2)c(=O)[nH]1` [Example 166, 3-(cyclopropylmethoxy)-N-(4-((2,4-dioxo-3,4-dihydropyrimidin-1(2H)-yl)methoxy)butyl)benzenesulfonamide], half-maximal inhibition (IC50) was put at 0.64 µM.

On to `O=c1ccn(COCCCC2(NS(=O)(=O)c3cccc(OCC4CC4)c3)CC2)c(=O)[nH]1` [Example 167, 3-(cyclopropylmethoxy)-N-(1-(3-((2,4-dioxo-3,4-dihydropyrimidin-1(2H)-yl)methoxy)propyl)cyclopropyl)benzenesulfonamide], for which the IC50 (in general, the point on the concentration scale where inhibition reaches its midpoint) is 0.13 µM.

`CC(C)(NS(=O)(=O)c1ccccc1)c1ccc(Cn2ccc(=O)[nH]c2=O)cc1` [Example 176, N-(2-(4-((2,4-dioxo-3,4-dihydropyrimidin-1(2H)-yl)methyl)phenyl)propan-2-yl)benzenesulfonamide]: the IC50 is 2.69 µM.

The compound `COc1cccc(S(=O)(=O)NC(C)(C)c2ccc(Cn3ccc(=O)[nH]c3=O)cc2)c1` [Example 177, N-(2-(4-((2,4-dioxo-3,4-dihydropyrimidin-1(2H)-yl)methyl)phenyl)propan-2-yl)-3-methoxybenzenesulfonamide] came in with a half-inhibitory concentration (IC50) of 2.57 µM.

`CC(C)(NS(=O)(=O)c1cccc(OCC2CC2)c1)c1ccc(Cn2ccc(=O)[nH]c2=O)cc1` [Example 178, 3-(cyclopropanemethoxy)-N-(2-(4-((2,4-dioxo-3,4-dihydropyrimidin-1(2H)-yl)methyl)phenyl)propan-2-yl)benzenesulfonamide] yielded a concentration for half-maximal inhibition (IC50) of 0.24 µM.

Compound `CC(C)(NS(=O)(=O)c1cccc(OCC2CC2)c1)c1ccc(Cn2ccc(=O)[nH]c2=O)nc1` [Example 179, 3-(cyclopropanemethoxy)-N-(2-(6-((2,4-dioxo-3,4-dihydropyrimidin-1(2H)-yl)methyl)pyridin-3-yl)propan-2-yl)benzenesulfonamide] showed an IC50 of 0.11 µM.
